pKi: −log10 of the molar value.
How the values were obtained:
Format in all cases: biochemical
[1] = target: c-Met (Homo sapiens, UniProt P08581); test: Ki determination for the inhibition of c-Met, coupled enzyme system; details: 200 μM ATP, 10 μM polyGluTyr, 80 nM c-Met, 30° C.
Protocol: Compounds were screened for their ability to inhibit c-Met kinase activity using a standard coupled enzyme system (Fox et al., Protein Sci. 1998, 7, 2249). Reactions were carried out in a solution containing 100 mM HEPES (pH 7.5), 10 mM MgCl2, 25 mM NaCl, 300 μM NADH, 1 mM DTT, and 1.5% DMSO. Final substrate concentrations in the assay were 200 μM ATP (Sigma Chemicals, St Louis, Mo.) and 10 μM polyGluTyr (Sigma Chemical Company, St. Louis). Reactions were carried out at 30° C. and 80 nM c-Met. Final concentrations of the components of the coupled enzyme system were 2.5 mM phosphoenolpyruvate, 300 μM NADH, 30 μg/ml pyruvate kinase and 10 μg/ml lactate dehydrogenase.
An assay stock buffer solution was prepared containing all of the reagents listed above with the exception of ATP and a test compound of the present invention. The assay stock buffer solution (175 μl) was incubated in a 96 well plate with 5 μl of the test compound of the present invention at final concentrations spanning 0.006 μM to 12.5 μM at 30° C. for 10 minutes. Typically, a 12-point titration was conducted by preparing serial dilutions (from 10 mM compound stocks) with DMSO of the test compounds of the present invention in daughter plates. The reaction was initiated by the addition of 20 μl of ATP (final concentration 200 μM). Rates of reaction were obtained using a Molecular Devices Spectramax plate reader (Sunnyvale, Calif.) over 10 minutes at 30° C. The Ki values were determined from the rate data as a function of inhibitor concentration.

[2] = target: GSK-3β, (AA 1-420) (Homo sapiens, UniProt P49841); test: GSK-3 inhibition assay, coupled enzyme system; details: 20 μM ATP, 300 μM peptide, 20 nM GSK-3b, 30° C.; read-out: Ki values (GSK3)
Sequence of GSK-3β, (AA 1-420) (P49841 whole entry, the tested form may be a part): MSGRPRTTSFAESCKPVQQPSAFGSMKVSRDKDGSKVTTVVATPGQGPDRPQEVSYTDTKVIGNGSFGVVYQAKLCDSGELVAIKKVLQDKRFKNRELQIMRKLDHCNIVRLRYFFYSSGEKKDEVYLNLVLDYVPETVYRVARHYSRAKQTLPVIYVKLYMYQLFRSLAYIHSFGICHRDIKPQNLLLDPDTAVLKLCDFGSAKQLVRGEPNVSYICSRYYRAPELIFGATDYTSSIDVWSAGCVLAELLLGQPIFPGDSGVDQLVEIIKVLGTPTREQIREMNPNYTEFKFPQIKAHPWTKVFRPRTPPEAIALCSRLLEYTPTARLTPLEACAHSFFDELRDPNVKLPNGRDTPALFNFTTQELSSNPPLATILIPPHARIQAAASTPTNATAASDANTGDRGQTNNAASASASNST
Protocol: Compounds of the present invention were screened for their ability to inhibit GSK-3β, (AA 1-420) activity using a standard coupled enzyme system (Fox et al., Protein Sci. 1998, 7, 2249). Reactions were carried out in a solution containing 100 mM HEPES (pH 7.5), 10 mM MgCl2, 25 mM NaCl, 300 μM NADH, 1 mM DTT and 1.5% DMSO. Final substrate concentrations in the assay were 20 μM ATP (Sigma Chemicals, St Louis, Mo.) and 300 μM peptide (American Peptide, Sunnyvale, Calif.). Reactions were carried out at 30° C. and 20 nM GSK-3b. Final concentrations of the components of the coupled enzyme system were 2.5 mM phosphoenolpyruvate, 300 μM NADH, 30 μg/ml pyruvate kinase and 10 μg/ml lactate dehydrogenase.
An assay stock buffer solution was prepared containing all of the reagents listed above with the exception of ATP and the test compound of the present invention. The assay stock buffer solution (175 μl) was incubated in a 96 well plate with 5 μl of the test compound of the present invention at final concentrations spanning 0.002 μM to 30 μM at 30° C. for 10 min. Typically, a 12 point titration was conducted by preparing serial dilutions (from 10 mM compound stocks) with DMSO of the test compounds of the present invention in daughter plates. The reaction was initiated by the addition of 20 μl of ATP (final concentration 20 μM). Rates of reaction were obtained using a Molecular Devices Spectramax plate reader (Sunnyvale, Calif.) over 10 min at 30° C. The Ki values were determined from the rate data as a function of inhibitor concentration.

[3] = target: SYK (Homo sapiens, UniProt P43405); test: SYK enzyme assay, coupled enzyme assay; details: 200 μM ATP, 4 μM poly Gly-Tyr peptide, 30° C.
Protocol: Compounds were screened for their ability to inhibit SYK using a standard coupled enzyme assay (Fox et al., Protein Sci. 1998, 7, 2249). Reactions were carried out in 100 mM HEPES (pH 7.5), 10 mM MgCl2, 25 mM NaCl, 1 mM DTT and 1.5% DMSO. Final substrate concentrations in the assay were 200 μM ATP (Sigma chemical Co.) and 4 μM poly Gly-Tyr peptide (Sigma Chemical Co.). Assays were carried out at 30° C. and 200 nM SYK. Final concentrations of the components of the coupled enzyme system were 2.5 mM phosphoenolpyruvate, 300 μM NADH, 30 μg/ml pyruvate kinase and 10 μg/ml lactate dehydrogenase.
An assay stock buffer solution was prepared containing all of the reagents listed above, with the exception of SYK, DTT, and the test compound of interest of the present invention. 56 μl of the test reaction was placed in a 96 well plate followed by the addition of 1 μl of 2 mM DMSO stock containing the test compound of the present invnetion (final compound concentration 30 μM). The plate was pre-incubated for ˜10 minutes at 30° C. and the reaction initiated by the addition of 10 μl of enzyme (final concentration 25 nM). Rates of reaction were obtained using a BioRad Ultramark plate reader (Hercules, Calif.) over a 5 minute read time at 30° C., and Ki values for the compounds of the present invention were determined according to standard methods.

[4] = target: T1, JAK3 (Homo sapiens, UniProt P52333); test: JAK3 inhibition assay (ELISA, Poly (Glu, Ala, Tyr) coated plates); details: 2 mM ATP, 60 minutes at 30° C.
T1 sequence (P52333 1-1124): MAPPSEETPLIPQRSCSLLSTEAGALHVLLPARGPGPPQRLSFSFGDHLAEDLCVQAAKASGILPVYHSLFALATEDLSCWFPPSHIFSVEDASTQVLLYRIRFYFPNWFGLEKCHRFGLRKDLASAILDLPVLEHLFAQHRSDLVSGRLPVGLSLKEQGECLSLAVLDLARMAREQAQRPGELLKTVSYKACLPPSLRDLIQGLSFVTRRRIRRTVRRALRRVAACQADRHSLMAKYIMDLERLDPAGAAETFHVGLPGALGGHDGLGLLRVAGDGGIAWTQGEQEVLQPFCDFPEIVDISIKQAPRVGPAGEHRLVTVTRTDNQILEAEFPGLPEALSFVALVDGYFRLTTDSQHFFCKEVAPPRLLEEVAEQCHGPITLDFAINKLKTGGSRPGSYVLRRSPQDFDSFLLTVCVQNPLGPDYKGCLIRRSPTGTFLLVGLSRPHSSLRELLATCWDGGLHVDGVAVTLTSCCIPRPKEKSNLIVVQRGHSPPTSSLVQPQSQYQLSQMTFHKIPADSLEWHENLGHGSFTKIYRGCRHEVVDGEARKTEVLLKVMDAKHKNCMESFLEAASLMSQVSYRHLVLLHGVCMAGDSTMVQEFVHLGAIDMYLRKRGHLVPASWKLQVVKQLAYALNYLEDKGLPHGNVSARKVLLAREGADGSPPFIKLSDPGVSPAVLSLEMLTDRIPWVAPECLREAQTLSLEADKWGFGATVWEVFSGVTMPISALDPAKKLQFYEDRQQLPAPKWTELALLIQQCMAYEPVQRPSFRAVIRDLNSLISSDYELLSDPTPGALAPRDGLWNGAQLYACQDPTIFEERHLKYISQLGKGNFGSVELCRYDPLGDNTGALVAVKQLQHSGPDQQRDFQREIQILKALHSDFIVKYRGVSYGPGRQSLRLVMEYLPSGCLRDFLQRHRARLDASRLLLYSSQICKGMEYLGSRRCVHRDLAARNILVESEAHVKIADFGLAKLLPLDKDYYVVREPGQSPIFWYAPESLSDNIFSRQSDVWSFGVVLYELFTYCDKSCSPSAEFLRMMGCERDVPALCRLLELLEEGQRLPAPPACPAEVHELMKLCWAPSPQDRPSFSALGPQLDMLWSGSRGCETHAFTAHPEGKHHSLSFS
Protocol: Compound inhibition of JAK3 was assayed by the method described by G. R. Brown, et al., Bioorg. Med. Chem. Lett. 2000, vol. 10, pp 575-579 in the following manner. Into Maxisorb plates, previously coated at 4° C. with Poly (Glu, Ala, Tyr) 6:3:1 then washed with phosphate buffered saline 0.05% and Tween (PBST), was added 2 mM ATP, 5 mM MgCl2, and a solution of compound in DMSO. The reaction was started with JAK enzyme and the plates incubated for 60 minutes at 30° C. The plates were then washed with PBST, […] HRP-Conjugated 4G10 antibody was added, and the plate incubated for 90 minutes at 30° C. The plate was again washed with PBST, […] TMB solution is added, and the plates were incubated for another 30 minutes at 30° C. Sulfuric acid ([…] of 1M) was added to stop the reaction and the plate is read at 450 nm to obtain the optical densities for analysis to determine IC50 values.

[5] = target: T2, c-KIT (Homo sapiens, UniProt P10721); test: Inhibition of c-KIT, radiometric filter-binding assay; details: 700 μM ATP, 0.5 mg/mL pE4Y, room temperature
T2 construct: 0.02% BSA and 25 nM c-KIT
T2 sequence (P10721 26-976): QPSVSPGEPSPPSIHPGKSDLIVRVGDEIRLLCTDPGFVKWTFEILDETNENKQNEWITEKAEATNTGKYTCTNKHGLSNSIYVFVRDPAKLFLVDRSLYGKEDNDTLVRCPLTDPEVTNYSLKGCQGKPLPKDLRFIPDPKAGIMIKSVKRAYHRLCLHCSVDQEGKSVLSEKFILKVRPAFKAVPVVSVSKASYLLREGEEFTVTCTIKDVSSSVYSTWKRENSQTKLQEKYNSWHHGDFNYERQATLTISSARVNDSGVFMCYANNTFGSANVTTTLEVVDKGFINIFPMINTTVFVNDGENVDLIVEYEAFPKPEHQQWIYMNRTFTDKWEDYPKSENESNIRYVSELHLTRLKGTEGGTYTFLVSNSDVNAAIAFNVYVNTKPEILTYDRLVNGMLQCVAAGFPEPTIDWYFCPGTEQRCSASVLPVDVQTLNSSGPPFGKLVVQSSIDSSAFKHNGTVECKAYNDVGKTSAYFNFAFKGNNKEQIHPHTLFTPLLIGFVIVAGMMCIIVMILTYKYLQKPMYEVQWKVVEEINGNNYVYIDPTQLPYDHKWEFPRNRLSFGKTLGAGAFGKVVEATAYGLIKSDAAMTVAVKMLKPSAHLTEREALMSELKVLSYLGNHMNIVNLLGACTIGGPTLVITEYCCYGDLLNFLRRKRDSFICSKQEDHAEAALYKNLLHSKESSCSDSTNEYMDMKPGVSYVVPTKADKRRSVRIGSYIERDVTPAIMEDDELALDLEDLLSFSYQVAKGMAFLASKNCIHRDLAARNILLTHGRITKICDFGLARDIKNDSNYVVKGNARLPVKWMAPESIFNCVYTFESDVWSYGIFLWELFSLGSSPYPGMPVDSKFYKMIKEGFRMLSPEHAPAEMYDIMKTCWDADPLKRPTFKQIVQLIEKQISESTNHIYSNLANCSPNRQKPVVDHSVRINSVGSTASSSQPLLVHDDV
Protocol: Compounds are screened for their ability to inhibit c-KIT activity using a radiometric filter-binding assay. This assay monitors the ^33P incorporation into a substrate poly(Glu, Tyr) 4:1 (pE4Y). Reactions are carried out in a solution containing 100 mM HEPES (pH 7.5), 10 mM MgCl2, 25 mM NaCl, 1 mM DTT, 0.01% BSA and 2.5% DMSO. Final substrate concentrations in the assay were 700 μM ATP and 0.5 mg/mL pE4Y (both from Sigma Chemicals, St Louis, Mo.). The final concentration of compounds is generally between 0.01 and 5 μM. Typically, a 12-point titration is conducted by preparing serial dilutions from 10 mM DMSO stock of test compound. Reactions were carried out at room temperature.
Two assay solutions are prepared. Solution 1 contains 100 mM HEPES (pH 7.5), 10 mM MgCl2, 25 mM NaCl, 1 mg/ml pE4Y and 1.4 mM ATP(containing 0.5 μCi of [γ-^33P]ATP for each reaction). Solution 2 contains 100 mM HEPES (pH 7.5), 10 mM MgCl2, 25 mM NaCl, 2 mM DTT, 0.02% BSA and 25 nM c-KIT. The assay is run on a 96 well plate by mixing 33 μL of Solution1 and 1.65 μL of the test compounds. The reaction is initiated with 33 μL of Solution2. After incubation for 20 minutes at room temperature, the reaction was stopped with 50 μL of 10% TCA containing 0.2 mM of ATP. All of the reaction volume is then transferred to a filter plate and washed with 5% TCA by a Harvester9600 from TOMTEC (Hamden, Conn.). The amount of ^33P incorporation into pE4y is analyzed by a Packard TopCount Microplate Scintillation Counter (Meriden, Conn.). The data is fitted using Prism software to get an IC50 or Ki.

Sequence of c-Met (P08581 25-1390): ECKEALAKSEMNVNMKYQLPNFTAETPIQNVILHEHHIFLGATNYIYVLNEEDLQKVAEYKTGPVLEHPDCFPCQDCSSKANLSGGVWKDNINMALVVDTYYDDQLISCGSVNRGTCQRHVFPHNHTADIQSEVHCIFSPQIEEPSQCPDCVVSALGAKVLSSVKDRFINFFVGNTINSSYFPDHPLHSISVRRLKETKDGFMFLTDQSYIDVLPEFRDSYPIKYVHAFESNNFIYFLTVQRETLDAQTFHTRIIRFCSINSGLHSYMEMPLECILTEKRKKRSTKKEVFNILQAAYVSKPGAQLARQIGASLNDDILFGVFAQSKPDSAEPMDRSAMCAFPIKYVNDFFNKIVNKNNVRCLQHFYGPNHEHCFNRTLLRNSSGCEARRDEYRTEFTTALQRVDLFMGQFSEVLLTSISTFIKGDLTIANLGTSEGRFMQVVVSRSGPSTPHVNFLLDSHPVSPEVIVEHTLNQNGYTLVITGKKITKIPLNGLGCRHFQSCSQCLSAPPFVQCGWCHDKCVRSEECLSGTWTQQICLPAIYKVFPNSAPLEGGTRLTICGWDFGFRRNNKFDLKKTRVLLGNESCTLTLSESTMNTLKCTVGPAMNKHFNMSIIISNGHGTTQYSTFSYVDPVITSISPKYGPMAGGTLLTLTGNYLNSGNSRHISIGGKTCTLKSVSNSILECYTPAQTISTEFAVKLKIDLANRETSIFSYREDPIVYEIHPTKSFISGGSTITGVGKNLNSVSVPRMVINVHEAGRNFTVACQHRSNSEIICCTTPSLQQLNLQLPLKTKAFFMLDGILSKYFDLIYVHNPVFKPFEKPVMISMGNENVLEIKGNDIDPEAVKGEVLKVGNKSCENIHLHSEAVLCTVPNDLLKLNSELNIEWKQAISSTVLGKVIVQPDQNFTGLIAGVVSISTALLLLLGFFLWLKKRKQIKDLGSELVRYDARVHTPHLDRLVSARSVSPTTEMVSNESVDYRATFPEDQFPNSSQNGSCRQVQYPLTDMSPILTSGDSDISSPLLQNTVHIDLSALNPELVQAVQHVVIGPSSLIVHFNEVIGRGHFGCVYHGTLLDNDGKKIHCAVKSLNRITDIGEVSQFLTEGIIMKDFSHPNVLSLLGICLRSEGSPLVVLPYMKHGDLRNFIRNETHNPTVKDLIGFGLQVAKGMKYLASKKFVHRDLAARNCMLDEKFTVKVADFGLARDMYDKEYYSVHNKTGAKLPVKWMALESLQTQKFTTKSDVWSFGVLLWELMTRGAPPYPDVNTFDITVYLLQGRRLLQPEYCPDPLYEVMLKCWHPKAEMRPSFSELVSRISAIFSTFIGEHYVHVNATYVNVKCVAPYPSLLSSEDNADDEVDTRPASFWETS

SMILES	pKi [1]	pKi [2]	pKi [3]	pKi [4]	pKi [5]
Fc1cccc(-c2cnoc2-c2c[nH]c3ccccc23)c1F [Compound 29, 3-[4-(2,3-Difluoro-phenyl)-isoxazol-5-yl]-1H-indole]	4.90 to 6.00	4.90 to 6.00	4.90 to 6.00		
CN1CCN(c2ccc(-c3cnc4[nH]cc(-c5nncn5-c5cccc(F)c5F)c4c3)cc2N)CC1 [Compound 129, 5-{3-[4-(2,3-Difluoro-phenyl)-4H-[1,2,4]triazol-3-yl]-1H-pyrrolo[2,3-b]pyridin-5-yl}-2-(4-methyl-piperazin-1-yl)-phenylamine]	> 6.70			6.00 to 6.70	> 6.70
CN(C)c1ccc(-c2cnc3[nH]cc(-c4nncn4-c4cccc(F)c4F)c3c2)cc1N [Compound 130, 4-{3-[4-(2,3-Difluoro-phenyl)-4H-[1,2,4]triazol-3-yl]-1H-pyrrolo[2,3-b]pyridin-5-yl}-N^1,N^1-dimethyl-benzene-1,2-diamine]	> 6.70			6.00 to 6.70	> 6.70
CN(C)c1ccc(-c2cnc3[nH]cc(-c4nncn4-c4cccc(F)c4F)c3c2)cc1[N+](=O)[O-] [Compound 131, (4-{3-[4-(2,3-Difluoro-phenyl)-4H-[1,2,4]triazol-3-yl]-1H-pyrrolo[2,3-b]pyridin-5-yl}-2-nitro-phenyl)-dimethyl-amine]	> 6.70			4.90 to 6.00	> 6.70
